Measured values taken from patent publication US9603852B2, “Treatment of obesity and pulmonary arterial hypertension” (ALBERT EINSTEIN COLLEGE OF MEDICINE, INC., priority 2013, dated 2017).

Experiments:
Sprague-Dawley rats [1] = assay: Rat monocrotaline (MCT) model of pulmonary arterial hypertension; assay type: in vivo; conditions: for Deaths/Total N: 21 days
Procedure: Monocrotaline (MCT) (Sigma-Aldrich) was formulated by standardized procedures, by first dissolving in an acidic solution (HCl), diluting with distilled H2O, then raising the pH to physiological levels (7.35-7.45) with NaOH. MCT (60 mg/kg) or a volume-matched saline solution was injected intraperitoneally once at the beginning of the study. Body weights were collected on day 0, 5, 7, 11, 14, 18, and 21.
MCT and saline-injected rats (Day 1) were equally and randomly assigned to receive either vehicle (Cremophor-NMP), low dose Compound 146 or high dose Compound 146 via subcutaneous injections (Days 1-21). Injections were administered subcutaneously at 12 hour intervals throughout the study (actual range was 10-14 h).
After 21 days of twice daily subq injections of either vehicle or two concentrations of Compound 146, rats were anesthetized (1.5-2.5% isoflurane; […]), shaved and positioned in dorsal recumbence. Anesthesia was maintained at an appropriate depth, with a target heart rate of ˜350 bpm to ensure minimal cardio-depressant effects during collection of RVSP.
Upon absent deep pain reflex, a thoracotomy was performed to reveal the right ventricle and a fluid-filled catheter was inserted beyond the right ventricular free wall to permit recording of right ventricular hemodynamics (ADI Instruments). A digital trace of 10-30 seconds was obtained from which to derive right ventricular diastolic, mean, and systolic pressures, along with heart rate and related hemodynamic measures. Blood was then drawn via cardiac puncture and centrifuged to obtain EDTA plasma. Hearts were removed and the right ventricle dissected free from the septal wall. Each piece was weighed and reported as RV/LV+S. Tissues (plasma, heart, and lung) were excised and frozen in liquid nitrogen for later biochemical analysis. Additionally, kidneys and liver were snap frozen and stored for subsequent analysis.
Animals were examined twice per day (morning and evening) on each day of the study. Examinations focused on (1) identifying dead, weak, or moribund animals, and (2) documenting the onset and progression of any abnormal clinical signs, especially dermal lesions. Animals found dead were necropsied as soon as possible; for those subjects RV/LVS weight ratios were obtained, but no other parameters were collected.
All data were analyzed by a one-way ANOVA with Newman-Keuls post-hoc multiple comparison test. Probability values less than 0.05 were accepted as significant. Normality of distribution was assumed but for all data sets. All data were analyzed with GraphPad Prism v5.02.

C57BL6/J mice [2] = assay: Glucose tolerance test in HFD-fed mice; assay type: in vivo; conditions: mice on HFD, 0.2 mM in drinking water for 67 days; glucose 2 g/kg i.p. after 12 h fast
Procedure: Glucose intolerance is often associated with obesity and HFD causes glucose intolerance. Mice were fasted for 12 hours. Glucose was injected intraperitoneally (20% glucose in saline, 2 g/kg body weight), and plasma glucose levels were measured at various time points by tail cut.

Sprague-Dawley rats [3] = assay: Tolerability with twice daily injections in the naive rodent; assay type: in vivo; conditions: 7 days
Procedure: In the first arm of the project, the tolerability of compounds was assessed with twice daily (b.i.d) injections in the naive rodent. Following one week of acclimatization to the UNM housing environments, rats at this time weighing approximately 200-225 g were randomly assigned to either receive a 50 mg/kg injection b.i.d. of Compound 146 (n=4) or an equivalent weight-based volume of vehicle (Cremophor-NMP) b.i.d. (n=4). Rats received test article or saline for a total of 7 consecutive days. Blood draws were conducted immediately before the 2nd day of injections, before the 4th day, before the 6th day, and at sacrifice. Body weights were obtained at the same times as the blood draws. On the 7th day, blood from both cohorts was collected via cardiac puncture while under anesthesia. Lungs, heart, liver and kidney were collected and snap frozen in liquid nitrogen for post-mortem bioassays.

rat PGT = biological target: T1, rat PGT (Rattus norvegicus, UniProt Q00910); conditions: cited from earlier work
T1 construct: expressed in transfected cells

C57BL6/J mice [4] = assay: High fat diet induced body weight gain, food and water intake in mice; assay type: in vivo; conditions: WT C57BL6 mice on HFD, 0.2 mM in drinking water
Procedure: CD and HFD were purchased from Purina LabDiet (Framingham, Mass.), and Research Diets (New Brunswick, N.J.), respectively. PGT global knockout (KO) mice were fed with HFD at 5-6 weeks of age. Simultaneously, WT-CD, WT-HFD, and PGTKO-HFD mice were treated with vehicle (0.4% DMSO+0.4% cremophore) or 0.2 mM Compound 146 from Table 1. To prepare Compound 146 solution, Compound 146 was dissolved in 100% DMSO at a concentration of 50 mM. Two mL of either DMSO or 50 mM Compound 146 were transferred into 500 mL drinking water; 2 mL cremophore were added into the mixture. The mixture was homogenous. Mice were housed individually and fed with CD or HFD, and water (with or without Compound 146) ad libitum. Food and water intakes and body weight were recorded every other day.

O=C(NCCOCCOCCNc1nc(Nc2ccc(C(=O)NCc3ccc(F)cc3)cc2)nc(Nc2ccc(O)c(C(=O)O)c2)n1)c1ccccc1 [Compound 146]
RV pressures, MCT+Vehicle versus MCT+Compound 146 by ANOVA (Sprague-Dawley rats [1]; 15 or 50 mg/kg b.i.d.): not statistically different | RV pulse pressure, MCT+Vehicle versus MCT+Compound 146 by ANOVA (Sprague-Dawley rats [1]; 15 or 50 mg/kg b.i.d.): statistically different | Net RV weight increase by MCT (Sprague-Dawley rats [1]; MCT rats): effect blunted | Deaths/Total N (Sprague-Dawley rats [1]; MCT rats, 15 mg/kg b.i.d. s.c.): 0/8 | Deaths/Total N (Sprague-Dawley rats [1]; MCT rats, 50 mg/kg b.i.d. s.c.): 0/8 | MCT induced increase in total lung weight (Sprague-Dawley rats [1]; MCT rats, both doses): inhibited | RV hypertrophic response (Sprague-Dawley rats [1]; MCT rats, both doses): significant inhibition | RV/LVS ratio (Fulton Index), mean (Sprague-Dawley rats [1]; MCT rats, high dose 50 mg/kg b.i.d.): 0.47 | right lobe dry weight / increase in structural components of the lung (Sprague-Dawley rats [1]; MCT rats, lobe dried for 5 days): abrogated this remodeling | RV/LVS ratio (Fulton Index), mean (Sprague-Dawley rats [1]; MCT rats, low dose 15 mg/kg b.i.d.): 0.41 | Deaths/Total N (Sprague-Dawley rats [1]; Saline-injected rats, 50 mg/kg b.i.d. s.c.): 0/5 | RV pulse pressure, MCT effect compared to control rats (Sprague-Dawley rats [1]; either dose (15 or 50 mg/kg b.i.d.)): MCT induced no significant effect compared to control rats | RV systolic and mean pressures, MCT effect compared to control rats (Sprague-Dawley rats [1]; either dose (15 or 50 mg/kg b.i.d.), ANOVA): MCT induced no significant effect compared to control rats | lethalities (Sprague-Dawley rats [1]; groups receiving any dose): no lethalities | RV pressures, MCT-vehicle compared to MCT-Compound 146, restricted analysis (Sprague-Dawley rats [1]; one-tailed unpaired Student's t-test, P=0.046 low dose and 0.002 high dose): significant reduction | HFD induced glucose intolerance (glucose tolerance test) (C57BL6/J mice [2]): improved HFD induced glucose intolerance | cutaneous lesion diameter close to injection sites (Sprague-Dawley rats [3]; 2 rats of the 50 mg/kg b.i.d. group that did not gain weight): 1.5-2.0 cm | body weight growth (tolerability) (Sprague-Dawley rats [3]; naive rats, 50 mg/kg b.i.d. injection in NMP and Cremophor): heterogeneous failure to thrive | Inh (% of Ctl) 0.01 μM (rat PGT; 0.01 μM compound, second part of Table 1): 28.5 % of Ctl | Inh (% of Ctl) 0.05 μM (rat PGT; 0.05 μM compound, second part of Table 1): 59.8 % of Ctl | Inh (% of Ctl) 0.1 μM (rat PGT; 0.1 μM compound, second part of Table 1 (Cpd 130-151)): 70.4 % of Ctl | HFD induced body weight gain (C57BL6/J mice [4]): blunted HFD induced weight gain
